The results in this text go back to ChEMBL document CHEMBL1125129, “Design of potent and selective linear antagonists of vasopressor (V1-receptor) responses to vasopressin” (J Med Chem, 1990).

Structures are written as SMILES.

In one test the target is Vasopressin V1 receptor (Rattus norvegicus, UniProt P48974+P30560). The experiment in a line: pA2 value was determined for Vasopressin V1 receptor antagonistic activity in vivo in anesthetized rats. It counts as functional, organism-based.
The next test deals with Rattus norvegicus. The test is described as follows: pA2 value was determined for antidiuretic V2 antagonistic activity in vivo in anesthetized rats pA2 value was determined for antidiuretic V2 antagonistic activity in vivo in anesthetized rats. It counts as functional, organism-based. The settings on record: Urine, read-out: pA2 (converted).
The next test concerns the target Vasopressin V2 receptor (Rattus norvegicus, UniProt Q00788). The experiment in a line: Vasopressin V2 receptor antagonistic activity in vivo in anesthetized rats. It counts as functional, organism-based. The settings on record: for Kb: read-out: pA2 (converted).
Test [1] deals with Vasopressin V2 receptor (Rattus norvegicus) (UniProt Q00788). The experiment in a line: Effective dose was determined for Vasopressin V2 receptor antagonistic activity in vivo in anesthetized rats. The test is classed as functional, organism-based.
Chain of Vasopressin V2 receptor (Rattus norvegicus) (Q00788 whole entry): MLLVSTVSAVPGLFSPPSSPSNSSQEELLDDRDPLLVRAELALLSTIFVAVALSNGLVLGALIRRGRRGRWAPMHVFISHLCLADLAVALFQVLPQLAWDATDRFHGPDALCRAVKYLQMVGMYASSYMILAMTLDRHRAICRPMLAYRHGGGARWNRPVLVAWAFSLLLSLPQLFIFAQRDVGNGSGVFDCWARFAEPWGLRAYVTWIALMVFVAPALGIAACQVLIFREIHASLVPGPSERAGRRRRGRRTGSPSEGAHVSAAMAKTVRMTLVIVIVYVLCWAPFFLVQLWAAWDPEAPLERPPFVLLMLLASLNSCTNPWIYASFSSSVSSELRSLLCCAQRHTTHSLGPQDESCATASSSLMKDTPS
Test [2] shares this target. The test is described as follows: Selectivity ratio of antidiuretic Vasopressin V2 receptor ED /[…] receptor ED. The settings on record: Urine.
Test [3] addresses Vasopressin V1 receptor (Rattus norvegicus) (UniProt P48974+P30560). The test is described as follows: Effective dose was determined for Vasopressin V1 receptor antagonistic activity in vivo in anesthetized rats. It counts as functional, organism-based.

Chain of Vasopressin V2 receptor (Q00788 whole entry): as above
Chain of Vasopressin V1 receptor (Rattus norvegicus) (P30560 whole entry, looked up): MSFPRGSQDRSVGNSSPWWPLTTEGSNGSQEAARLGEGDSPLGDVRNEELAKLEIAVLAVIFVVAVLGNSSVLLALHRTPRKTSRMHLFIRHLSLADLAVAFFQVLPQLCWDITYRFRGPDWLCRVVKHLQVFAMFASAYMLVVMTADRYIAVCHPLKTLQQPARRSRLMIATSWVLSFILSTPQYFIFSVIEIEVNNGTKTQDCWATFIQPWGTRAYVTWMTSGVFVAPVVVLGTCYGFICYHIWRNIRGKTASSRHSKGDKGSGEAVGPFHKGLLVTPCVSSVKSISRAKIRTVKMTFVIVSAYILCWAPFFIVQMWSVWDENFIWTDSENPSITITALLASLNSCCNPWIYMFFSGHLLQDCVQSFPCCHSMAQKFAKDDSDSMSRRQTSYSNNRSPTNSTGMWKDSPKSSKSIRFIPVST
Chain of Vasopressin V1 receptor (Rattus norvegicus) (P48974 whole entry, looked up): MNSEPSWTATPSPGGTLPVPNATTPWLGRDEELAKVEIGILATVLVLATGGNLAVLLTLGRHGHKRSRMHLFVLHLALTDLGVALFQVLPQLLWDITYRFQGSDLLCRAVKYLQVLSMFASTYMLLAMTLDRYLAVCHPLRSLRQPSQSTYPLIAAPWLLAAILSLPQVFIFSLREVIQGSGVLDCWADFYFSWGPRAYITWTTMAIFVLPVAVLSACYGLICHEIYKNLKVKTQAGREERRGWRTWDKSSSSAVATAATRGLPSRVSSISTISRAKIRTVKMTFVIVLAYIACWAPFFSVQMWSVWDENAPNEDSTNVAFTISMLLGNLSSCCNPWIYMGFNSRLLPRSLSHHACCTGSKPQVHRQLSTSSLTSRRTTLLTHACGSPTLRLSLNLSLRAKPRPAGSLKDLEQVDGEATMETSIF

`CCOc1ccc(C[C@@H](NC(=O)CC23CC4CC(CC(C4)C2)C3)C(=O)N[C@@H](Cc2ccccc2)C(=O)N[C@H](C(=O)N[C@@H](CC(N)=O)C(=O)N[C@@H](CCCN=C(N)N)C(=O)N2CCC[C@H]2C(=O)N[C@@H](CCCN=C(N)N)C(=O)N[C@@H](CCCN=C(N)N)C(N)=O)C(C)C)cc1` yielded a pA2 on Vasopressin V1 receptor of 8.13. Besides, in the test on Rattus norvegicus, the Kb was 10.5 nM.
`CCOc1ccc(C[C@@H](NC(=O)CC23CC4CC(CC(C4)C2)C3)C(=O)N[C@@H](Cc2ccccc2)C(=O)N[C@H](C(=O)N[C@@H](CC(N)=O)C(=O)N[C@@H](CCCN=C(N)N)C(=O)N2CCC[C@H]2C(=O)N[C@@H](CCCN=C(N)N)C(N)=O)C(C)C)cc1` gave a pA2 at Vasopressin V1 receptor of 8.01. Besides, the Kb in the test on Rattus norvegicus was 18.6 nM.
On Vasopressin V1 receptor, `CCOc1ccc(C[C@@H](NC(=O)CC23CC4CC(CC(C4)C2)C3)C(=O)N[C@@H](Cc2ccccc2)C(=O)N[C@H](C(=O)N[C@@H](CC(N)=O)C(=O)N[C@@H](CCCN)C(=O)N2CCC[C@H]2C(=O)N[C@@H](CCCN=C(N)N)C(=O)N[C@@H](CCCN=C(N)N)C(N)=O)C(C)C)cc1` returned a pA2 of 7.64. Also, the Kb in the test with Rattus norvegicus is around 12.6 nM.
For the molecule `NCCCC[C@H](NC(=O)[C@H](CC(N)=O)NC(=O)[C@H](CCC(N)=O)NC(=O)[C@H](Cc1ccccc1)NC(=O)[C@@H](Cc1ccc(O)cc1)NC(=O)Cc1ccccc1)C(=O)N1CCC[C@H]1C(=O)N[C@@H](CCCN=C(N)N)C(N)=O`, at Vasopressin V2 receptor, the Kb is 63.1 nM. Besides, the pA2 at Vasopressin V1 receptor is listed as 8.91.
On to `CCOc1ccc(C[C@@H](NC(=O)CC23C[C@H]4C[C@@H](C2)C[C@@H](C3)C4)C(=O)N[C@@H](Cc2ccccc2)C(=O)N[C@H](C(=O)N[C@@H](CC(N)=O)C(=O)N[C@@H](CC)C(=O)N2CCC[C@H]2C(=O)N[C@@H](CCCN=C(N)N)C(N)=O)C(C)C)cc1`, for which the pA2 at Vasopressin V2 receptor turned out to be 7.21; at Vasopressin V1 receptor, 7.43.
As to `CCOc1ccc(C[C@@H](NC(=O)Cc2ccccc2)C(=O)N[C@@H](Cc2ccccc2)C(=O)N[C@H](C(=O)N[C@@H](CC(N)=O)C(=O)N[C@@H](CCCN)C(=O)N2CCC[C@H]2C(=O)N[C@@H](CCCN=C(N)N)C(=O)N[C@@H](CCCN=C(N)N)C(N)=O)C(C)C)cc1`, the Kb at Vasopressin V2 receptor is around 58.9 nM. At Vasopressin V1 receptor, the pA2 is given as 8.39.
In the case of `CCOc1ccc(C[C@@H](NC(=O)CC23CC4CC(CC(C4)C2)C3)C(=O)N[C@@H](Cc2ccccc2)C(=O)N[C@H](C(=O)N[C@@H](CC(N)=O)C(=O)N[C@@H](CCCN)C(=O)N2CCC[C@H]2C(=O)N[C@@H](CCCN=C(N)N)C(N)=O)C(C)C)cc1`, the pA2 at Vasopressin V1 receptor was determined as 7.33. Moreover, in the test on Rattus norvegicus, the Kb was 15.5 nM.
Take `CCOc1ccc(C[C@@H](NC(=O)CC23C[C@H]4C[C@@H](C2)C[C@@H](C3)C4)C(=O)N[C@@H](Cc2ccccc2)C(=O)N[C@H](C(=O)N[C@@H](CC(N)=O)C(=O)NCCCC(=O)N2CCC[C@H]2C(=O)N[C@@H](CCCN=C(N)N)C(=O)N[C@@H](CCCN=C(N)N)C(N)=O)C(C)C)cc1`: the Kb on Vasopressin V2 receptor was 7.76 nM. Also, the pA2 on Vasopressin V1 receptor came to 7.75.
`COc1ccc(C[C@@H](NC(=O)Cc2ccccc2)C(=O)N[C@@H](Cc2ccccc2)C(=O)N[C@@H](CCC(N)=O)C(=O)N[C@@H](CC(N)=O)C(=O)N[C@@H](CCCCN)C(=O)N2CCC[C@H]2C(=O)N[C@@H](CCCN=C(N)N)C(N)=O)cc1` returned a pA2 at Vasopressin V1 receptor of 8.93. Moreover, the Kb with Rattus norvegicus is above 316 nM.
As to `CCOc1ccc(C[C@@H](NC(=O)CC23CC4CC(CC(C4)C2)C3)C(=O)N[C@@H](Cc2ccccc2)C(=O)N[C@H](C(=O)N[C@@H](CC(N)=O)C(=O)N[C@@H](CCCCN)C(=O)N2CCC[C@H]2C(=O)N[C@@H](CCCN=C(N)N)C(N)=O)C(C)C)cc1`, the Kb on Vasopressin V2 receptor was 15.5 nM. The molecule further came in with a pA2 at Vasopressin V1 receptor of 8.02.
Regarding `CC(C)[C@H](NC(=O)[C@H](Cc1ccccc1)NC(=O)[C@@H](Cc1ccc(O)cc1)NC(=O)CC12CC3CC(CC(C3)C1)C2)C(=O)N[C@@H](CC(N)=O)C(=O)N[C@@H](CCCN=C(N)N)C(=O)N1CCC[C@H]1C(=O)N[C@@H](CCCN=C(N)N)C(=O)N[C@@H](CCCN=C(N)N)C(N)=O`, the Kb at Vasopressin V2 receptor was 21.9 nM. This molecule displayed a pA2 at Vasopressin V1 receptor of 8.22.
Taken in the same sequence, the figures for `COc1ccc(C[C@@H](NC(=O)Cc2ccccc2)C(=O)N[C@@H](Cc2ccccc2)C(=O)N[C@H](C(=O)N[C@@H](CC(N)=O)C(=O)N[C@@H](CCCCN)C(=O)N2CCC[C@H]2C(=O)N[C@@H](CCCN=C(N)N)C(N)=O)C(C)C)cc1` were 100 nM and 8.61.
`CCOc1ccc(C[C@@H](NC(=O)CC(C)(C)C)C(=O)N[C@@H](Cc2ccccc2)C(=O)N[C@@H](CCC(N)=O)C(=O)N[C@@H](CC(N)=O)C(=O)N[C@@H](CCCCN)C(=O)N2CCC[C@H]2C(=O)N[C@@H](CCCN=C(N)N)C(N)=O)cc1`: the Kb on Vasopressin V2 receptor was 6310 nM. Moreover, on Vasopressin V1 receptor, the pA2 is 8.4.
Turning to `CCOc1ccc(C[C@@H](NC(=O)CC(C)(C)C)C(=O)N[C@@H](Cc2ccccc2)C(=O)N[C@H](C(=O)N[C@@H](CC(N)=O)C(=O)N[C@@H](CCCN=C(N)N)C(=O)N(C)[C@@H](C)C(=O)N[C@@H](CCCN=C(N)N)C(N)=O)C(C)C)cc1`, the Effective dose in test [1] was determined as 16 nM/kg; in test [3], 0.3 nM/kg. Moreover, the Kb on Vasopressin V2 receptor is 251 nM. Also, the Ratio in test [2] worked out at 53. For the same molecule, the pA2 at Vasopressin V1 receptor worked out at 8.34.
At Vasopressin V1 receptor, `CCOc1ccc(C[C@H]2NC(=O)CC3(CCCCC3)SSC[C@@H](C(=O)N3CCC[C@H]3C(=O)N[C@@H](CCCN=C(N)N)C(N)=O)NC(=O)[C@H](CC(N)=O)NC(=O)[C@H](C(C)C)NC(=O)[C@H](Cc3ccccc3)NC2=O)cc1` registered a pA2 of 8.17. Moreover, the Kb in the test on Rattus norvegicus was 20.4 nM.
Taken in the same sequence, the figures for `CCOc1ccc(C[C@@H](NC(=O)CC(C)(C)C)C(=O)N[C@@H](Cc2ccccc2)C(=O)N[C@H](C(=O)N[C@@H](CC(N)=O)C(=O)N[C@@H](CCCCN)C(=O)N2CCC[C@H]2C(=O)N[C@@H](CCCN=C(N)N)C(N)=O)C(C)C)cc1` were 8.63 and 100 nM.
The corresponding values for `CCOc1ccc(C[C@@H](NC(=O)Cc2ccccc2)C(=O)N[C@@H](Cc2ccccc2)C(=O)N[C@@H](CCC(N)=O)C(=O)N[C@@H](CC(N)=O)C(=O)N[C@@H](CCCCN)C(=O)N2CCC[C@H]2C(=O)N[C@@H](CCCN=C(N)N)C(N)=O)cc1` are 9.05 and 501 nM.
In the case of `CCOc1ccc(C[C@@H](NC(=O)CC23CC4CC(CC(C4)C2)C3)C(=O)N[C@@H](Cc2ccccc2)C(=O)N[C@H](C(=O)N[C@@H](CC(N)=O)C(=O)N[C@@H](CCCN=C(N)N)C(=O)N(C)[C@@H](C)C(=O)N[C@@H](CCCN=C(N)N)C(N)=O)C(C)C)cc1`, the Effective dose amounted to 1.2 nM/kg in test [1] and 0.37 nM/kg in test [3]. The Ratio in test [2] turned out to be 3.2. The molecule also returned a pA2 on Vasopressin V1 receptor of 8.28. The Kb in the test with Rattus norvegicus is 17 nM.
Take `CCOc1ccc(C[C@@H](NC(=O)Cc2ccccc2)C(=O)N[C@@H](Cc2ccccc2)C(=O)N[C@H](C(=O)N[C@@H](CC(N)=O)C(=O)N[C@@H](CCCCN)C(=O)N2CCC[C@H]2C(=O)N[C@@H](CCCN=C(N)N)C(N)=O)C(C)C)cc1`: the Kb on Vasopressin V2 receptor was 43.7 nM. Besides, on Vasopressin V1 receptor, the pA2 was 8.81.
The molecule `CCOc1ccc(C[C@@H](NC(=O)Cc2ccccc2)C(=O)N[C@@H](Cc2ccccc2)C(=O)N[C@H](C(=O)N[C@@H](CC(N)=O)C(=O)N[C@@H](CCCCN)C(=O)N2CCC[C@H]2C(=O)N[C@@H](CCCN=C(N)N)C(=O)N[C@@H](CCCN=C(N)N)C(N)=O)C(C)C)cc1` gave a pA2 at Vasopressin V1 receptor of 8.47. Moreover, the Kb in the test on Rattus norvegicus was around 141 nM.
